We go through eight molecules from publication PMC7949135, “Structural analysis of carbohydrate binding by the macrophage mannose receptor CD206” (The Journal of Biological Chemistry, 2021).

For orientation: Ki means a measure of affinity in units of concentration, obtained from inhibition or displacement. A low value points to a stronger hold on the target.

The target in one test is T1, biotin-tagged CRD4 (carbohydrate-recognition domain 4 of the mannose receptor, CD206) (Homo sapiens, UniProt P22897).
T1 construct: gene MRC1; borders from residues reported in crystals
T1 sequence (P22897 646-779): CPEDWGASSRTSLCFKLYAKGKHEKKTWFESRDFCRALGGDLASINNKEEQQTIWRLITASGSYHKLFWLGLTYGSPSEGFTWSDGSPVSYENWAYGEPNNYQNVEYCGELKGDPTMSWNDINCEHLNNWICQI
As to the kind of experiment: solid-phase competition with horseradish peroxidase, CRD4 immobilised on streptavidin plates.
Conditions: not given
It is filed as binding. The text has this:
solid-phase competition with horseradish peroxidase, CRD4 immobilised on streptavidin plates on biotin-tagged CRD4 (carbohydrate-recognition domain 4 of the mannose receptor, CD206)
`CO[C@H]1O[C@H](CO)[C@@H](O)[C@H](O)[C@@H]1O` [α-Methyl mannose] came in with a Ki of 900 ± 100 µM.

In turn, `CO[C@@H]1O[C@@H](C)[C@@H](O)[C@@H](O)[C@@H]1O` [αMeFuc] gave a Ki of 110 ± 20 µM.

The same test, now with this note: competitive; 2.5 mM CaCl2, 150 mM NaCl, 25 mM Tris-Cl pH 7.8, 4 °C.
On to `OC[C@H]1O[C@H](OC[C@H]2OC(O)[C@@H](O)[C@@H](O)[C@@H]2O)[C@@H](O)[C@@H](O)[C@@H]1O` (some centres unmarked) [Manα1-6Man], for which the affinity corresponds to a Ki of 380 ± 30 µM.

`CC(=O)N[C@H]1[C@H](O[C@H]2[C@H](O)[C@@H](NC(C)=O)C(O)O[C@@H]2CO)O[C@H](CO)[C@@H](O[C@@H]2O[C@H](CO[C@H]3O[C@H](CO[C@H]4O[C@H](CO)[C@@H](O)[C@H](O)[C@@H]4O[C@H]4O[C@H](CO)[C@@H](O)[C@H](O)[C@@H]4O)[C@@H](O)[C@H](O[C@H]4O[C@H](CO)[C@@H](O)[C@H](O)[C@@H]4O[C@H]4O[C@H](CO)[C@@H](O)[C@H](O)[C@@H]4O)[C@@H]3O)[C@@H](O)[C@H](O[C@H]3O[C@H](CO)[C@@H](O)[C@H](O)[C@@H]3O[C@H]3O[C@H](CO)[C@@H](O)[C@H](O)[C@@H]3O[C@H]3O[C@H](CO)[C@@H](O)[C@H](O)[C@@H]3O)[C@@H]2O)[C@@H]1O` (some centres unmarked) [Man9]: the affinity, expressed as Ki, was 23 ± 0.4 µM.

`OC[C@H]1O[C@H](O[C@@H]2C(O)O[C@H](CO)[C@@H](O)[C@@H]2O)[C@@H](O)[C@@H](O)[C@@H]1O` (some centres unmarked) [Manα1-2Man] displayed a Ki of 480 ± 40 µM.

For the molecule `OC[C@H]1O[C@H](O[C@H]2[C@H](O)[C@@H](CO)OC(O)[C@H]2O)[C@@H](O)[C@@H](O)[C@@H]1O` (some centres unmarked) [Manα1-3Man], affinity was put at a Ki of 860 ± 50 µM.

In turn, `OC[C@H]1O[C@H](OC[C@H]2OC(O)[C@@H](O)[C@@H](O[C@H]3O[C@H](CO)[C@@H](O)[C@H](O)[C@@H]3O)[C@@H]2O)[C@@H](O)[C@@H](O)[C@@H]1O` (some centres unmarked) [Manα1-6(Manα1-3)Man] gave a Ki of 300 ± 80 µM.

Take `OC[C@H]1O[C@H](O[C@H]2[C@H](O)[C@H](O)C(O)O[C@@H]2CO)[C@@H](O)[C@@H](O)[C@@H]1O` (some centres unmarked) [Manα1-4Man]: the affinity corresponds to a Ki of 730 ± 70 µM.
